Results published in PubChem BioAssay AID2060347 (Molecular Pharmacology Branch, DTP, NCI, 2025).

System: 817829-284-R-J1-PDC spheroids with HUVEC/MSC, viability
Assay: Anticancer human tumor 817829-284-R-J1-PDC patient-derived colon adenocarcinoma cell line growth inhibition [TAK]
Settings: for IC50: curve of first compound; for viability, T/C: stronger effect = lower value; active means viability on the fitted dose curve at most 10% of control; inactive means the rest
Procedure, shortened: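 Tumor cells were grown as spheroids with HUVEC and hMSC (60:25:15) and treated with targeted agents combined with TAK-243 or ipatasertib. Drugs were tested in half-log steps down from near the clinical Cmax, or from 10 microM where Cmax was unknown.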

CC(C)CC(NC(=O)C(Cc1ccccc1)NC(=O)c1cnccn1)B(O)O (stereo not given) + CC(C)NCC(C(=O)N1CCN(c2ncnc3c2C(C)CC3O)CC1)c1ccc(Cl)cc1
4.91 nM: IC50 (second compound 0.3 µM)
4.23 nM: IC50 (second compound 0.949 µM)
active: viability, T/C (second compound 0.3 µM, first compound 0.01 µM) 0.6% | viability, T/C (second compound 0.949 µM, first compound 0.01 µM) 0.35% | viability, T/C (second compound 3 µM, first compound 0.01 µM) 0.2% | viability, T/C (second compound 9.49 µM, first compound 0.001 µM) 13.6% | viability, T/C (second compound 9.49 µM, first compound 0.00316 µM) 8.78% | viability, T/C (second compound 9.49 µM, first compound 0.01 µM) 0.15% | viability, T/C (second compound 30 µM, first compound 0.0001 µM) 8.27% | viability, T/C (second compound 30 µM, first compound 0.000316 µM) 10.2% | viability, T/C (second compound 30 µM, first compound 0.001 µM) 9.25% | viability, T/C (second compound 30 µM, first compound 0.00316 µM) 6.13% | viability, T/C (second compound 30 µM, first compound 0.01 µM) 0.2%
inactive: viability, T/C (second compound 0.3 µM, first compound 31.6 pM) 108% | viability, T/C (second compound 0.3 µM, first compound 0.0001 µM) 104% | viability, T/C (second compound 0.3 µM, first compound 0.000316 µM) 105% | viability, T/C (second compound 0.3 µM, first compound 0.001 µM) 100% | viability, T/C (second compound 0.3 µM, first compound 0.00316 µM) 80.7% | viability, T/C (second compound 0.949 µM, first compound 31.6 pM) 88% | viability, T/C (second compound 0.949 µM, first compound 0.0001 µM) 60.8% | viability, T/C (second compound 0.949 µM, first compound 0.000316 µM) 64.6% | viability, T/C (second compound 0.949 µM, first compound 0.001 µM) 77.2% | viability, T/C (second compound 0.949 µM, first compound 0.00316 µM) 66.7% | viability, T/C (second compound 3 µM, first compound 31.6 pM) 29.4% | viability, T/C (second compound 3 µM, first compound 0.0001 µM) 22.9% | viability, T/C (second compound 3 µM, first compound 0.000316 µM) 29.9% | viability, T/C (second compound 3 µM, first compound 0.001 µM) 22.3% | viability, T/C (second compound 3 µM, first compound 0.00316 µM) 19.9% | viability, T/C (second compound 9.49 µM, first compound 31.6 pM) 12.7% | viability, T/C (second compound 9.49 µM, first compound 0.0001 µM) 13.2% | viability, T/C (second compound 9.49 µM, first compound 0.000316 µM) 11.6% | viability, T/C (second compound 30 µM, first compound 31.6 pM) 8.2%
< 0.0316 nM: IC50 (second compound 3 µM) | IC50 (second compound 9.49 µM) | IC50 (second compound 30 µM)

Cn1cnc2c(F)c(Nc3ccc(Br)cc3Cl)c(C(=O)NOCCO)cc21 + CC(C)NCC(C(=O)N1CCN(c2ncnc3c2C(C)CC3O)CC1)c1ccc(Cl)cc1
< 9.49 nM: IC50 (second compound 0.949 µM) | IC50 (second compound 3 µM) | IC50 (second compound 9.49 µM) | IC50 (second compound 30 µM)
active: viability, T/C (second compound 0.3 µM, first compound 3 µM) 9.69% | viability, T/C (second compound 3 µM, first compound 0.00949 µM) 9.45% | viability, T/C (second compound 3 µM, first compound 0.03 µM) 10.2% | viability, T/C (second compound 3 µM, first compound 0.0949 µM) 8.2% | viability, T/C (second compound 3 µM, first compound 0.3 µM) 9.01% | viability, T/C (second compound 3 µM, first compound 0.949 µM) 8.23% | viability, T/C (second compound 3 µM, first compound 3 µM) 6.8% | viability, T/C (second compound 9.49 µM, first compound 0.00949 µM) 6.1% | viability, T/C (second compound 9.49 µM, first compound 0.03 µM) 6.4% | viability, T/C (second compound 9.49 µM, first compound 0.0949 µM) 5.55% | viability, T/C (second compound 9.49 µM, first compound 0.3 µM) 5.64% | viability, T/C (second compound 9.49 µM, first compound 0.949 µM) 4.81% | viability, T/C (second compound 9.49 µM, first compound 3 µM) 4.12% | viability, T/C (second compound 30 µM, first compound 0.00949 µM) 4.35% | viability, T/C (second compound 30 µM, first compound 0.03 µM) 3.94% | viability, T/C (second compound 30 µM, first compound 0.0949 µM) 3.58% | viability, T/C (second compound 30 µM, first compound 0.3 µM) 3.91% | viability, T/C (second compound 30 µM, first compound 0.949 µM) 2.71% | viability, T/C (second compound 30 µM, first compound 3 µM) 2.38%
inactive: viability, T/C (second compound 0.3 µM, first compound 0.00949 µM) 53.8% | viability, T/C (second compound 0.3 µM, first compound 0.03 µM) 36.5% | viability, T/C (second compound 0.3 µM, first compound 0.0949 µM) 40.4% | viability, T/C (second compound 0.3 µM, first compound 0.3 µM) 23.4% | viability, T/C (second compound 0.3 µM, first compound 0.949 µM) 17.4% | viability, T/C (second compound 0.949 µM, first compound 0.00949 µM) 17.6% | viability, T/C (second compound 0.949 µM, first compound 0.03 µM) 15.9% | viability, T/C (second compound 0.949 µM, first compound 0.0949 µM) 13.8% | viability, T/C (second compound 0.949 µM, first compound 0.3 µM) 12.9% | viability, T/C (second compound 0.949 µM, first compound 0.949 µM) 12.6% | viability, T/C (second compound 0.949 µM, first compound 3 µM) 10.6%
11.5 nM: IC50 (second compound 0.3 µM)
